Tests used:
[1] = Phase 1 clinical study: plasma pharmacokinetics of prodrug and ibuprofen; type: in vivo, human; settings: steady-state, 70 mg
[2] = 14-day repeated dermal dose toxicity study; parameters: species or system Rats; settings: rat, in vivo, topical or ocular; 14-day dermal
[3] = tested on: osteoarthritis of the knee; test: Second Phase 2 study: WOMAC stiffness subscale score; type: in vivo, human; settings: Low Dose (2 spray/knee, 8.75 mg/knee) Cohort
[4] = Acute maximum tolerated dose study, dermal; parameters: species or system Beagle dogs; settings: beagle, dog, in vivo, topical or ocular; dermal application
dogs = test: Cardiovascular telemetry study in the unrestrained conscious non-naïve dog; type: in vivo; settings: dermal 10, 25 and 50 mg/kg; up to 48 hours
[5] = tested on: Mild to Moderate Osteoarthritis of the Knee; test: Phase 2 study: physician's global assessment of disease status; type: in vivo, human
From the text: 3.9.3. Exploratory Efficacy Endpoints: • 1. Subject's global assessment of disease status of the target knee at 2, 4, 8, and 12 weeks of treatment; • 2. Investigator's global assessment of disease status of the target knee at 2, 4, 8, and 12 weeks of treatment; • 3. Subject's global assessment of response to therapy of the target knee at 2, 4, 8, and 12 weeks of treatment; • 4. Investigator's global assessment of response to therapy of the target knee at 2, 4, 8, and 12 weeks of treatment; • 5. Change from Baseline over time in VAS pain scores for the target knee from Daily Diary data; • 6. Amount of rescue medication (acetaminophen) consumed per day for target knee pain.
Data for the exploratory efficacy endpoints will be summarized using descriptive statistics.

Sprague Dawley rats = test: Behavioral effects, functional observational battery; type: in vivo; settings: single dermal dose 50, 250, 750 mg/kg
[6] = Acute maximum tolerated dose study, subcutaneous injection; parameters: species or system Beagle dogs; settings: beagle, dog, in vivo, sc
mini pigs = test: 39-week GLP repeated dermal dose toxicity and toxicokinetics study with 4-week recovery; type: in vivo; settings: 5, 12.5 and 25 mg/kg dermal, 39 weeks
[7] = Second Phase 2 study: plasma ibuprofen pharmacokinetics; type: in vivo, human; settings: low dose levels (below 35 mg/day)
Description: All subjects enrolled at designated sites that have the capability to keep subjects overnight will be included in the PK subgroup until PK samples for 40 subjects per treatment group have been collected. […] At the Week 12/EOS visit, PK blood samples can be collected predose and at 2, 4, and 6 hours postdose. Subjects will only receive the morning dose at the Week 12/EOS visit.
Thus only ibuprofen was analyzed in this trial.

[8] = Battery of nonclinical pharmacology and toxicology studies (overall); settings: in vivo
From the text: A battery of pharmacology and toxicology studies including a GLP acute dermal maximum tolerated dose study in rats, a GLP acute dermal maximum tolerated dose study in Beagle dogs, a non-GLP 14-day repeated dermal dose toxicity study in rats, a non-GLP 14-day repeated dermal dose toxicity study in Beagle dogs, a 28-day GLP repeated dermal dose toxicity and toxicokinetics study in rats with 14-day recovery, a 28-day GLP repeated dermal dose toxicity and toxicokinetics study in Beagle dogs with 14-day recovery, a GLP bacterial reverse mutation assay (Ames), a GLP in vitro chromosome aberration assay in CHO-WBL Cells, a GLP in vivo bone marrow micronucleus assay in rats, a behavioral effects in rats using the functional observational battery, a rat respiratory safety pharmacology study, a cardiovascular telemetry study in the unrestrained conscious non-naïve dog, a skin irritation study in rabbits, a study on embryo-fetal development in rats, a 39-week GLP repeated dermal dose toxicity and toxicokinetics study in mini pigs with 4-week recovery, a 26-week GLP repeated dermal dose toxicity and toxicokinetics study in rats with 4-week recovery, a study on fertility and early embryonic development to implantation in rats, a study on embryo-fetal development in rabbits, and a sensitization test in guinea pigs were conducted.

[9] = tested on: healthy male and female volunteers; test: Phase 1 clinical study: skin irritation assessment (dermal response score 0-7); type: in vivo, human; settings: all dose groups
Description: Skin irritation due to study drug application was measured by a dermal response score of 0-7 assigned for each study drug application site prior to and 30 min following each dose administration. A score of 6 or 7 was considered a severe reaction. Pre-dose assessments during the multiple dosing served as the 12 hour post-dose assessment of the prior dose.

[10] = Acute dermal maximum tolerated dose study; type: in vivo, Rats; settings: both sexes, rat, in vivo, topical or ocular, 1000 mg/kg; once, dermal; male and female rats
[11] = In vitro half-life with animal skin; type: in vitro ADME; settings: read-out: in vitro T1/2 (converted)
[12] = 14-day repeated dermal dose toxicity study; parameters: species or system Beagle dogs; settings: beagle, dog, in vivo, topical or ocular; 14-day dermal
Osteoarthritis = test: Phase 2 study: effect of treatment on sign and symptoms of osteoarthritis at 12 weeks (re-analysis, all patients taken as active); type: in vivo, human; settings: for difference from placebo, sign and symptoms of OA: placebo effect assumed −6.1; for Mean ± SEM WOMAC Osteoarthritis Index Composite Score Change from Baselines / Mean ± SEM WOMAC Osteoarthritis Index Composite Score Change from Baselines, adjusted by […] of the testing drug amount: scale 0 to 100
From the text: (William G. Bensen, Justus J. Fiechtner, James 1. McMillen, et. al. Treatment of Osteoarthritis with Celecoxib. Mayo Clin Proc, November 1999. Vol 74, 1095-1105.)

CCN(CC)CCOC(=O)C(C)c1ccc(CC(C)C)cc1 (centres unmarked) [2-(diethylamino)ethyl 2-(4-isobutylphenyl)propionate]
relative bioavailability of spray vs topical application (plasma ibuprofen) [1]: comparable at steady-state
NOAEL at 14 days [2]: 250 mg/kg/day
WOMAC Joint Stiffness Subscale Score, Follow-up, Avg. ([3]; Avg. of all patients (blinded), Follow-up): 41.4
WOMAC Joint Stiffness Subscale Score, Day 1 ([3]; individual patient (blinded), Day 1): 60.5
WOMAC Joint Stiffness Subscale Score, Week 8 ([3]; individual patient (blinded), Week 8): 64.5
MTD [4]: ≥ 50 mg/kg
qualitative ECG parameters (dogs): 25, and 50 mg/kg of ibuprofenamine and vehicle in dogs. There were no effects
Physician's Global Assessment of Disease Status: Improved (percentage of patients who improved by 2 grades or more from baseline, or from 1 to 0) ([5]; 8.75 mg/knee (BID)): 10.5%
Physician's Global Assessment of Disease Status: Worsened (percentage of patients who worsened by 2 grades or more from baseline, or from 3 to 4) ([5]; 8.75 mg/knee (BID)): 1.8%
patients improved by 2 grades or more from baseline (physician's global assessment) ([5]; 8.75 mg/knee (BID)): 10.5%
Physician's Global Assessment of Disease Status: Improved (percentage of patients who improved by 2 grades or more from baseline, or from 1 to 0) ([5]; 17.5 mg/knee (BID)): 35.6%
Physician's Global Assessment of Disease Status: Worsened (percentage of patients who worsened by 2 grades or more from baseline, or from 3 to 4) ([5]; 17.5 mg/knee (BID)): 1.7%
Physician's Global Assessment of Disease Status: Improved (percentage of patients who improved by 2 grades or more from baseline, or from 1 to 0) ([5]; 35 mg/knee (BID)): 30.9%
Physician's Global Assessment of Disease Status: Worsened (percentage of patients who worsened by 2 grades or more from baseline, or from 3 to 4) ([5]; 35 mg/knee (BID)): 0%
neurobehavioral changes (FOB test) (Sprague Dawley rats): 250, and 750 mg/kg of ibuprofenamine were not associated with any
MTD [6]: 500 mg/kg
local or systemic adverse effects (mini pigs): mini pigs with 4-week recovery was done and no test article-related local
detectability of prodrug in plasma [7]: cannot be detected in most of subjects' plasma
overall safety [8]: appeared to be safe and were generally well tolerated
maximum skin irritation score (0-7) [9]: ≤ 3
MTD [10]: > 1000 mg/kg
half-life [11]: ~20 h
NOAEL at 14 days [12]: 50 mg/kg/day
difference from placebo, sign and symptoms of OA (Osteoarthritis; 8.75 mg BID, Week 12): −13.4
adjusted best result relative to Celecoxib (100 mg, BID) (Osteoarthritis; 17.5 mg BID): 6 times
best result relative to Celecoxib (100 mg, BID) (Osteoarthritis; 17.5 mg BID): 3 times
difference from placebo, adjusted by […] of the testing drug (Osteoarthritis; 17.5 mg BID, Week 12): −43.5
difference from placebo, sign and symptoms of OA (Osteoarthritis; 17.5 mg BID, Week 12): −22.8
difference from placebo, sign and symptoms of OA (Osteoarthritis; 35 mg BID, Week 12): −16.9
Mean ± SEM WOMAC Osteoarthritis Index Composite Score Change from Baselines (Osteoarthritis; 2 sprays/knee (8.75 mg, BID) transdermally, Follow-up (Week13)): −18.4 ± 3.20
Mean ± SEM WOMAC Osteoarthritis Index Composite Score Change from Baselines (Osteoarthritis; 2 sprays/knee (8.75 mg, BID) transdermally, Week 2): −11.1 ± 2.50
Mean ± SEM WOMAC Osteoarthritis Index Composite Score Change from Baselines (Osteoarthritis; 2 sprays/knee (8.75 mg, BID) transdermally, Week 4): −18.0 ± 2.50
Mean ± SEM WOMAC Osteoarthritis Index Composite Score Change from Baselines (Osteoarthritis; 2 sprays/knee (8.75 mg, BID) transdermally, Week 8): −18.1 ± 2.92
Mean ± SEM WOMAC Osteoarthritis Index Composite Score Change from Baselines (Osteoarthritis; 2 sprays/knee (8.75 mg, BID) transdermally, Week 12): −19.5 ± 3.18
Mean ± SEM WOMAC Osteoarthritis Index Composite Score Change from Baselines, adjusted by […] of the testing drug amount (Osteoarthritis; 2 sprays/knee (8.75 mg, BID), Follow-up (Week 13)): −31.6 ± 5.49
Mean ± SEM WOMAC Osteoarthritis Index Composite Score Change from Baselines, adjusted by […] of the testing drug amount (Osteoarthritis; 2 sprays/knee (8.75 mg, BID), Week 2): −19.0 ± 4.29
Mean ± SEM WOMAC Osteoarthritis Index Composite Score Change from Baselines, adjusted by […] of the testing drug amount (Osteoarthritis; 2 sprays/knee (8.75 mg, BID), Week 4): −30.9 ± 4.29
Mean ± SEM WOMAC Osteoarthritis Index Composite Score Change from Baselines, adjusted by […] of the testing drug amount (Osteoarthritis; 2 sprays/knee (8.75 mg, BID), Week 8): −31.0 ± 5.01
Mean ± SEM WOMAC Osteoarthritis Index Composite Score Change from Baselines, adjusted by […] of the testing drug amount (Osteoarthritis; 2 sprays/knee (8.75 mg, BID), Week 12): −33.4 ± 5.45
Mean ± SEM WOMAC Osteoarthritis Index Composite Score Change from Baselines (Osteoarthritis; 4 sprays/knee (17.5 mg, BID) transdermally, Follow-up (Week13)): −23.4 ± 3.52
Mean ± SEM WOMAC Osteoarthritis Index Composite Score Change from Baselines (Osteoarthritis; 4 sprays/knee (17.5 mg, BID) transdermally, Week 2): −15.1 ± 2.89
Mean ± SEM WOMAC Osteoarthritis Index Composite Score Change from Baselines (Osteoarthritis; 4 sprays/knee (17.5 mg, BID) transdermally, Week 4): −21.3 ± 3.32
Mean ± SEM WOMAC Osteoarthritis Index Composite Score Change from Baselines (Osteoarthritis; 4 sprays/knee (17.5 mg, BID) transdermally, Week 8): −24.8 ± 3.26
Mean ± SEM WOMAC Osteoarthritis Index Composite Score Change from Baselines (Osteoarthritis; 4 sprays/knee (17.5 mg, BID) transdermally, Week 12): −28.9 ± 3.38
Mean ± SEM WOMAC Osteoarthritis Index Composite Score Change from Baselines, adjusted by […] of the testing drug amount (Osteoarthritis; 4 sprays/knee (17.5 mg, BID), Follow-up (Week 13)): −40.1 ± 6.04
Mean ± SEM WOMAC Osteoarthritis Index Composite Score Change from Baselines, adjusted by […] of the testing drug amount (Osteoarthritis; 4 sprays/knee (17.5 mg, BID), Week 2): −25.9 ± 4.96
Mean ± SEM WOMAC Osteoarthritis Index Composite Score Change from Baselines, adjusted by […] of the testing drug amount (Osteoarthritis; 4 sprays/knee (17.5 mg, BID), Week 4): −36.5 ± 5.69
Mean ± SEM WOMAC Osteoarthritis Index Composite Score Change from Baselines, adjusted by […] of the testing drug amount (Osteoarthritis; 4 sprays/knee (17.5 mg, BID), Week 8): −42.5 ± 5.59
Mean ± SEM WOMAC Osteoarthritis Index Composite Score Change from Baselines, adjusted by […] of the testing drug amount (Osteoarthritis; 4 sprays/knee (17.5 mg, BID), Week 12): −49.6 ± 5.80
Mean ± SEM WOMAC Osteoarthritis Index Composite Score Change from Baselines (Osteoarthritis; 8 sprays/knee (35 mg, BID) transdermally, Follow-up (Week13)): −22.1 ± 3.23
Mean ± SEM WOMAC Osteoarthritis Index Composite Score Change from Baselines (Osteoarthritis; 8 sprays/knee (35 mg, BID) transdermally, Week 2): −11.7 ± 2.88
Mean ± SEM WOMAC Osteoarthritis Index Composite Score Change from Baselines (Osteoarthritis; 8 sprays/knee (35 mg, BID) transdermally, Week 4): −17.0 ± 2.96
Mean ± SEM WOMAC Osteoarthritis Index Composite Score Change from Baselines (Osteoarthritis; 8 sprays/knee (35 mg, BID) transdermally, Week 8): −21.7 ± 3.28
Mean ± SEM WOMAC Osteoarthritis Index Composite Score Change from Baselines (Osteoarthritis; 8 sprays/knee (35 mg, BID) transdermally, Week 12): −23.0 ± 3.27
Mean ± SEM WOMAC Osteoarthritis Index Composite Score Change from Baselines, adjusted by […] of the testing drug amount (Osteoarthritis; 8 sprays/knee (35 mg, BID), Follow-up (Week 13)): −37.9 ± 5.54
Mean ± SEM WOMAC Osteoarthritis Index Composite Score Change from Baselines, adjusted by […] of the testing drug amount (Osteoarthritis; 8 sprays/knee (35 mg, BID), Week 2): −20.1 ± 4.94
Mean ± SEM WOMAC Osteoarthritis Index Composite Score Change from Baselines, adjusted by […] of the testing drug amount (Osteoarthritis; 8 sprays/knee (35 mg, BID), Week 4): −29.2 ± 5.08
Mean ± SEM WOMAC Osteoarthritis Index Composite Score Change from Baselines, adjusted by […] of the testing drug amount (Osteoarthritis; 8 sprays/knee (35 mg, BID), Week 8): −37.2 ± 5.63
Mean ± SEM WOMAC Osteoarthritis Index Composite Score Change from Baselines, adjusted by […] of the testing drug amount (Osteoarthritis; 8 sprays/knee (35 mg, BID), Week 12): −39.5 ± 5.61
